Measured values published in patent US20240091110A1, “Oral Care Compositions and Methods of Use” (Colgate-Palmolive Company, priority 2019, published 2024).

Tested on: mixed species biofilm
Test: Seahorse XFe Extracellular Flux Analyzer, Mitochondrial Respiration - Oxygen Consumption Rate (OCR) in mixed biofilm assay
Type: cell-based
Protocol: Samples with varying amounts of cannabidiol (CBD) are assessed for their effects on cellular metabolism with and without various source of zinc. Using the Seahorse XF^e Extracellular Flux Analyzer, biofilm samples are grown for 48 hrs. […] The biofilms are harvested for culture. Diluted biofilm and toothpaste slurry are loaded to each well. Glycolysis—Extracellular Acidification Rate (ECAR) and Mitochondrial Respiration—Oxygen Consumption Rate (OCR) is measured for 25-50 cycles (˜360 minutes). The “CBD Oil” is 5% CBD (by wt. of the CBD Oil) in Hemp seed oil.
Where the “OCR” is oxygen consumption rate units as measured using the Seahorse XF^e Extracellular Flux Analyzer: […]

| SMILES | Average (OCR) (Table 3, separate experiment, stannous slurry, untreated 11489.9) | Average (OCR) (Table 1, CBD and zinc lactate, biofilm grown 48 hrs, untreated 25,669.50) |
| --- | --- | --- |
| [F][Sn][F] [0.2% by wt. Stannous Fluoride, Stannous Fluoride] | 10440.7 | – |
| CC(O)C(=O)[O-].CC(O)C(=O)[O-].[Zn+2] (centres unmarked) [1.5% Zinc Lactate, Zinc Lactate] | – | 21,900.63 |
